Like-named read-outs stand apart in the source and are kept apart here. Starred links: 1 amine or outer side, 2 acyl side, 3 side chain; linkers in the order of their positions; H or OH if unused. Non-standard residues stand in square brackets, D forms with d. Residues, ends and D or L forms follow the SMILES beside them. Groups on a side chain read outwards from the residue. ξ: configuration not given here. *: point of attachment. C20 diacid = O=C(O)CCCCCCCCCCCCCCCCCCC(=O)*; γGlu = O=C(O)[C@H](CCC(=O)[*:2])N[*:1]; αMeL = CC(C)C[C@](C)(N)C(=O)O; αMeK = C[C@](N)(CCCCN)C(=O)O; ξIva = CCC(C)(N)C(=O)O; AEEA = NCCOCCOCC(=O)O; Aib = CC(C)(N)C(=O)O

From patent publication EP4745153A1, “GLP-1, GIP AND GCG RECEPTOR […] USE THEREOF” (Jiangsu Hengrui Pharmaceuticals Co., Ltd., priority 2023, dated 2025) come the findings set out here.

One series has as its target T1, human GCGR (Homo sapiens, UniProt P47871).
T1 construct: expressed in transfected cells; host or cells: CHO-K1 clonal cell line
Description: cAMP HTRF agonist activity assay in CHO-K1 cells expressing GCGR. For Activity against human GCGR (EC50 nM): 5% FBS, 0.1% Casein. Format: cell-based. How it is done: (§1) Functional activity was determined in CHO-K1 clonal cell lines expressing GIPR, GLP-1R, and GCGR. […] Each recipient cell (5000 cells/well) was added to an SV 96-well plate (Cisbio, 66PL96025) and incubated with the prepared polypeptide at 37°Cfor 30 min. The resulting increase in intracellular cAMP was quantitatively measured using the cAMP-GS dynamic HTRF assay kit (Cisbio, 62AM4PEJ). Briefly, the intracellular cAMP levels were determined by adding cAMP-d2 conjugate in cell lysis buffer, followed by the antibody anti-cAMP-Eu cryptate (also in cell lysis buffer).
(§2) Using the maximum response percentage vs. the added polypeptide concentration, the relative EC50 values were derived through nonlinear regression analysis and fitted to a four-parameter logarithmic equation. For specific data, refer to Tables 7-1 to 7-8 below. […]

Series [1] can be described thus: Pharmacokinetics in mice after single intravenous injection. To be noted: in vivo. On the set-up: species or system C57 mice. Summed up: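 Male C57 mice (~25 g, 4-6 weeks, n=3) received a single i.v. dose of 200 nmol/kg in 1×PBS. Plasma collected from 5 min to 72 h was methanol-precipitated with verapamil internal standard and quantified by LC-MS (ESI positive, MRM); PK parameters were calculated by PKSolver.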

A further series has as its target T2, human GIPR (Homo sapiens, UniProt P48546).
T2 construct: expressed in transfected cells; host or cells: CHO-K1 clonal cell line
T2 sequence (P48546 22-466): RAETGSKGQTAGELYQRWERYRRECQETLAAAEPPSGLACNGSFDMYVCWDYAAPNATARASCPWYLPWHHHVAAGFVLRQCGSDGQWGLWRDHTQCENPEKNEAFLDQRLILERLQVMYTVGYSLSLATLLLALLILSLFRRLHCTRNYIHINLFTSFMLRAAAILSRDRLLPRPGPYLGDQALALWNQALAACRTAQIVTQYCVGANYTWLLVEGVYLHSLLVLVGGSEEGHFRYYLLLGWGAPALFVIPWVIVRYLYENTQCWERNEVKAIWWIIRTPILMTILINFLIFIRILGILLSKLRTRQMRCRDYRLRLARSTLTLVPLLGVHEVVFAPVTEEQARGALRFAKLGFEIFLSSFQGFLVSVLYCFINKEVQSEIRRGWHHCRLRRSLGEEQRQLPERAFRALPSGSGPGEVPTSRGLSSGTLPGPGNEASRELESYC
The series can be described thus: cAMP HTRF agonist activity assay in CHO-K1 cells expressing GIPR. Note: 5% FBS, 0.1% Casein. The series is classed as cell-based. The settings on record: read-out: Activity against human GIPR (EC50 nM). Summed up:
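Clonal CHO-K1 lines, 5000 cells/well, exposed to polypeptides for 30 min at 37°C. Intracellular cAMP read by HTRF (cAMP-d2 conjugate plus anti-cAMP-Eu cryptate in lysis buffer). Relative EC50 from four-parameter nonlinear fit of percent maximum response against concentration.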
On the technique in general: Time-resolved FRET reads energy transfer from a long-lived donor to a nearby acceptor.

The target in another series is T3, human GLP-1R (Homo sapiens, UniProt P43220).
T3 construct: expressed in transfected cells; host or cells: CHO-K1 clonal cell line
The series can be described thus: cAMP HTRF agonist activity assay in CHO-K1 cells expressing GLP-1R. Note: 5% FBS, 0.1% Casein. The series is classed as cell-based. The settings on record: read-out: Activity against human GLP-1R (EC50 nM). How it is done:
as §1, §2

The mark [2] stands for this setting: mouse, male C57 mice, single intravenous dose 200 nmol/kg, plasma.

T1 sequence (P47871 26-477): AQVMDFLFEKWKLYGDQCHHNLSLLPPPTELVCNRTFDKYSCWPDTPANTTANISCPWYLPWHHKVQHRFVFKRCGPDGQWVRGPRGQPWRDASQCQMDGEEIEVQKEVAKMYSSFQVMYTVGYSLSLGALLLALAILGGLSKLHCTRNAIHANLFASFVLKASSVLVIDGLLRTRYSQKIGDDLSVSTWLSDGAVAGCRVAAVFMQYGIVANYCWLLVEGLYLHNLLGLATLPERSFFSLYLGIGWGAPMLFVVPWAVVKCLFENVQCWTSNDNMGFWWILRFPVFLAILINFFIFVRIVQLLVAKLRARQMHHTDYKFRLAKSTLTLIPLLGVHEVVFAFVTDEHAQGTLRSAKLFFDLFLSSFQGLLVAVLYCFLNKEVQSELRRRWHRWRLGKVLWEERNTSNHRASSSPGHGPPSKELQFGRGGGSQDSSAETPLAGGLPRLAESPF
T3 sequence (P43220 24-463): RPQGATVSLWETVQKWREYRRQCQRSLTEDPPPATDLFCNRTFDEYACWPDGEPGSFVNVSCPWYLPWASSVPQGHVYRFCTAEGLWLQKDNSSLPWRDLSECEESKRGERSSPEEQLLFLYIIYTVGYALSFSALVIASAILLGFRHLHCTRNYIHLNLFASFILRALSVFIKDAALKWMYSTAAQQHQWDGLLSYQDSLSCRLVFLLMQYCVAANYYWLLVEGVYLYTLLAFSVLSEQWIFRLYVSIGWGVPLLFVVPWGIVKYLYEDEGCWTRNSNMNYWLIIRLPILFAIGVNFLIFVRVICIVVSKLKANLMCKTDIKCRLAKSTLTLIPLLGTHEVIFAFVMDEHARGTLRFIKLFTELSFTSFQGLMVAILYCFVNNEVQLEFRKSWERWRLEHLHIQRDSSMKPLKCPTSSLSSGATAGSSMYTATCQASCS

For orientation: EC50 means the midpoint of the concentration-response curve. For orientation: AUC(0-inf) means total exposure, with the tail of the curve extrapolated. Read a low AUC(0-inf) as low exposure. The molecule `CC(C)C[C@H](NC(=O)[C@H](CC(C)C)NC(=O)[C@H](Cc1c[nH]c2ccccc12)NC(=O)[C@H](CCC(=O)O)NC(=O)[C@@H](NC(=O)[C@H](Cc1ccccc1)NC(=O)[C@H](CCC(=O)O)NC(=O)[C@H](CCC(N)=O)NC(=O)[C@H](C)NC(=O)[C@H](C)NC(=O)[C@H](CCCCN)NC(=O)[C@H](CCCCNC(=O)COCCOCCNC(=O)COCCOCCNC(=O)CC[C@H](NC(=O)CCCCCCCCCCCCCCCCCCC(=O)O)C(=O)O)NC(=O)[C@H](CCC(=O)O)NC(=O)[C@H](CC(C)C)NC(=O)[C@H](Cc1ccc(O)cc1)NC(=O)[C@](C)(CCCCN)NC(=O)[C@H](CO)NC(=O)[C@H](Cc1ccc(O)cc1)NC(=O)[C@H](CC(=O)O)NC(=O)[C@H](CO)NC(=O)[C@@H](NC(=O)[C@H](Cc1ccccc1)NC(=O)[C@@H](NC(=O)CNC(=O)[C@H](Cc1c[nH]cn1)NC(=O)C(C)(C)NC(=O)[C@@H](N)Cc1c[nH]cn1)[C@@H](C)O)[C@@H](C)O)C(C)C)C(=O)N[C@@H](C)C(=O)NCC(=O)NCC(=O)N1CCC[C@H]1C(=O)N[C@@H](CO)C(=O)N[C@@H](CO)C(=O)NCC(=O)N[C@@H](C)C(=O)N1CCC[C@H]1C(=O)N1CCC[C@H]1C(=O)N1CCC[C@H]1C(=O)N[C@@H](CO)C(N)=O` [Compound 0104] (H-H[Aib]HGTFTSDYS[αMeK]YLEK([AEEA-AEEA-γGlu-C20 diacid])KAAQEFVEWLLAGGPSSGAPPPS-NH2) registered a concentration giving a half-maximal response (EC50) on human GCGR of 0.037 nM. In series [1] (setting [2]), this molecule yielded an AUC(0-inf) of 30.9 µM·h and a C0 of 4.22 µM. The clearance in series [1] (mouse, male C57 mice, single intravenous dose 200 nmol/kg, plasma, read-out: CLp) was 0.108 mL/min/kg. For the same molecule, the half-life in series [1] (mouse, male C57 mice, single intravenous dose 200 nmol/kg, plasma, read-out: T1/2 (converted)) is 11.5 h.

With `CC[C@H](C)[C@H](NC(=O)[C@H](CO)NC(=O)[C@H](Cc1ccc(O)cc1)NC(=O)[C@H](CC(=O)O)NC(=O)[C@H](CO)NC(=O)[C@@H](NC(=O)[C@H](Cc1ccccc1)NC(=O)[C@@H](NC(=O)CNC(=O)[C@H](Cc1c[nH]cn1)NC(=O)C(C)(C)NC(=O)[C@@H](N)Cc1c[nH]cn1)[C@@H](C)O)[C@@H](C)O)C(=O)N[C@@H](CC(C)C)C(=O)N[C@@H](CC(C)C)C(=O)N[C@@H](CCC(=O)O)C(=O)N[C@@H](CCCCNC(=O)COCCOCCNC(=O)COCCOCCNC(=O)CC[C@H](NC(=O)CCCCCCCCCCCCCCCCCCC(=O)O)C(=O)O)C(=O)N[C@@H](CCCCN)C(=O)N[C@@H](C)C(=O)N[C@@H](C)C(=O)N[C@@H](CCC(N)=O)C(=O)N[C@@H](CCC(=O)O)C(=O)N[C@@H](Cc1ccccc1)C(=O)N[C@H](C(=O)N[C@@H](CCC(=O)O)C(=O)N[C@@H](Cc1c[nH]c2ccccc12)C(=O)N[C@@H](CC(C)C)C(=O)N[C@@H](CC(C)C)C(=O)N[C@@H](C)C(=O)N[C@H](CCC(=O)O)C(=O)NCC(=O)N1CCC[C@H]1C(=O)N[C@@H](CO)C(=O)N[C@@H](CO)C(=O)NCC(=O)N[C@@H](C)C(=O)N1CCC[C@H]1C(=O)N1CCC[C@H]1C(=O)N1CCC[C@H]1C(=O)N[C@@H](CO)C(N)=O)C(C)C` [Compound 0151], the concentration for a half-maximal effect (EC50) on human GCGR (read-out: Activity against human GCGR (EC50 nM)) is 0.055 nM; on human GIPR, 0.004 nM.

As for `CC[C@H](C)[C@H](NC(=O)[C@H](CO)NC(=O)[C@H](Cc1ccc(O)cc1)NC(=O)[C@H](CC(=O)O)NC(=O)[C@H](CO)NC(=O)[C@@H](NC(=O)[C@H](Cc1ccccc1)NC(=O)[C@@H](NC(=O)CNC(=O)[C@H](Cc1c[nH]cn1)NC(=O)C(C)(C)NC(=O)[C@@H](N)Cc1c[nH]cn1)[C@@H](C)O)[C@@H](C)O)C(=O)N[C@@](C)(CC(C)C)C(=O)N[C@@H](CC(C)C)C(=O)N[C@@H](CCC(=O)O)C(=O)N[C@@H](CCCCNC(=O)COCCOCCNC(=O)COCCOCCNC(=O)CC[C@H](NC(=O)CCCCCCCCCCCCCCCCCCC(=O)O)C(=O)O)C(=O)N[C@@H](CCCCN)C(=O)N[C@@H](C)C(=O)N[C@@H](C)C(=O)NC(C)(CC)C(=O)N[C@@H](CCC(=O)O)C(=O)N[C@@H](Cc1ccccc1)C(=O)N[C@H](C(=O)N[C@@H](CCC(=O)O)C(=O)N[C@@H](Cc1c[nH]c2ccccc12)C(=O)N[C@@H](CC(C)C)C(=O)N[C@@H](CC(C)C)C(=O)N[C@@H](C)C(=O)NCC(=O)NCC(=O)N1CCC[C@H]1C(=O)N[C@@H](CO)C(=O)N[C@@H](CO)C(=O)NCC(=O)N[C@@H](C)C(=O)N1CCC[C@H]1C(=O)N1CCC[C@H]1C(=O)N1CCC[C@H]1C(=O)N[C@@H](CO)C(N)=O)C(C)C` (stereo partly shown) [Compound 0137] (H-H[Aib]HGTFTSDYSI[αMeL]LEK([AEEA-AEEA-γGlu-C20 diacid])KAA[ξIva]EFVEWLLAGGPSSGAPPPS-NH2), the half-maximal effective concentration (EC50) is 0.013 nM at human GLP-1R and 0.001 nM on human GIPR. In series [1] (male, C57, mouse, iv), this molecule returned a clearance of 0.163 mL/min/kg. In series [1] (male, C57, mouse, iv), the half-life is 8.8 h.

In turn, `CC[C@H](C)[C@H](NC(=O)[C@](C)(CCCCN)NC(=O)[C@H](CO)NC(=O)[C@H](Cc1ccc(O)cc1)NC(=O)[C@H](CC(=O)O)NC(=O)[C@H](CO)NC(=O)[C@@H](NC(=O)[C@H](Cc1ccccc1)NC(=O)[C@@H](NC(=O)CNC(=O)[C@H](Cc1c[nH]cn1)NC(=O)C(C)(C)NC(=O)[C@@H](N)Cc1c[nH]cn1)[C@@H](C)O)[C@@H](C)O)C(=O)N[C@@H](CC(C)C)C(=O)N[C@@H](CCC(=O)O)C(=O)N[C@@H](CCCCNC(=O)COCCOCCNC(=O)COCCOCCNC(=O)CC[C@H](NC(=O)CCCCCCCCCCCCCCCCCCC(=O)O)C(=O)O)C(=O)N[C@@H](CCC(N)=O)C(=O)N[C@@H](C)C(=O)N[C@@H](C)C(=O)NC(C)(CC)C(=O)N[C@@H](CCC(=O)O)C(=O)N[C@@H](Cc1ccccc1)C(=O)N[C@H](C(=O)N[C@@H](CCC(=O)O)C(=O)N[C@@H](Cc1c[nH]c2ccccc12)C(=O)N[C@@H](CC(C)C)C(=O)N[C@@H](CC(C)C)C(=O)N[C@@H](C)C(=O)NCC(=O)NCC(=O)N1CCC[C@H]1C(=O)N[C@@H](CO)C(=O)N[C@@H](CO)C(=O)NCC(=O)N[C@@H](C)C(=O)N1CCC[C@H]1C(=O)N1CCC[C@H]1C(=O)N1CCC[C@H]1C(=O)N[C@@H](CO)C(N)=O)C(C)C` (stereo partly shown) [Compound 0130] (H-H[Aib]HGTFTSDYS[αMeK]ILEK([AEEA-AEEA-γGlu-C20 diacid])QAA[ξIva]EFVEWLLAGGPSSGAPPPS-NH2) showed an EC50 on human GCGR of 0.03 nM.

`CCC(C)(NC(=O)[C@H](C)NC(=O)[C@H](C)NC(=O)[C@H](CCCCN)NC(=O)[C@H](CCCCNC(=O)COCCOCCNC(=O)COCCOCCNC(=O)CC[C@H](NC(=O)CCCCCCCCCCCCCCCCCCC(=O)O)C(=O)O)NC(=O)[C@H](CCC(=O)O)NC(=O)[C@H](CC(C)C)NC(=O)[C@H](CC(C)C)NC(=O)[C@](C)(CCCCN)NC(=O)[C@H](CO)NC(=O)[C@H](Cc1ccc(O)cc1)NC(=O)[C@H](CC(=O)O)NC(=O)[C@H](CO)NC(=O)[C@@H](NC(=O)[C@H](Cc1ccccc1)NC(=O)[C@@H](NC(=O)CNC(=O)[C@H](CCC(N)=O)NC(=O)C(C)(C)NC(=O)[C@@H](N)Cc1ccc(O)cc1)[C@@H](C)O)[C@@H](C)O)C(=O)N[C@@H](CCC(=O)O)C(=O)N[C@@H](Cc1ccccc1)C(=O)N[C@H](C(=O)N[C@@H](CCC(=O)O)C(=O)N[C@@H](Cc1c[nH]c2ccccc12)C(=O)N[C@@H](CC(C)C)C(=O)N[C@@H](CC(C)C)C(=O)N[C@@H](C)C(=O)NCC(=O)NCC(=O)N1CCC[C@H]1C(=O)N[C@@H](CO)C(=O)N[C@@H](CO)C(=O)NCC(=O)N[C@@H](C)C(=O)N1CCC[C@H]1C(=O)N1CCC[C@H]1C(=O)N1CCC[C@H]1C(=O)N[C@@H](CO)C(N)=O)C(C)C` (stereo partly shown) [Compound 0127] (H-Y[Aib]QGTFTSDYS[αMeK]LLEK([AEEA-AEEA-γGlu-C20 diacid])KAA[ξIva]EFVEWLLAGGPSSGAPPPS-NH2) displayed an EC50 on human GCGR of 0.037 nM.
